According to patent US10730843B1, “Quinoxalines useful as cytoprotective agents” (priority 2019, dated 2020):

Experiments:
[1] = biological target: T1, SERCA (Homo sapiens, UniProt P16615); test: Ca-ATPase assay (NADH-linked, enzyme-coupled ATPase assay); format: biochemical; settings: microsomal preparations from HEK 293 cells; Vmax from fit of ATPase calcium-dependence to the Hill function, relative to controls
T1 construct: microsomal preparations from HEK 293 cells; endogenous in cells; host or cells: HEK 293 cells (microsomal preparation)
T1 sequence (P16615 whole entry): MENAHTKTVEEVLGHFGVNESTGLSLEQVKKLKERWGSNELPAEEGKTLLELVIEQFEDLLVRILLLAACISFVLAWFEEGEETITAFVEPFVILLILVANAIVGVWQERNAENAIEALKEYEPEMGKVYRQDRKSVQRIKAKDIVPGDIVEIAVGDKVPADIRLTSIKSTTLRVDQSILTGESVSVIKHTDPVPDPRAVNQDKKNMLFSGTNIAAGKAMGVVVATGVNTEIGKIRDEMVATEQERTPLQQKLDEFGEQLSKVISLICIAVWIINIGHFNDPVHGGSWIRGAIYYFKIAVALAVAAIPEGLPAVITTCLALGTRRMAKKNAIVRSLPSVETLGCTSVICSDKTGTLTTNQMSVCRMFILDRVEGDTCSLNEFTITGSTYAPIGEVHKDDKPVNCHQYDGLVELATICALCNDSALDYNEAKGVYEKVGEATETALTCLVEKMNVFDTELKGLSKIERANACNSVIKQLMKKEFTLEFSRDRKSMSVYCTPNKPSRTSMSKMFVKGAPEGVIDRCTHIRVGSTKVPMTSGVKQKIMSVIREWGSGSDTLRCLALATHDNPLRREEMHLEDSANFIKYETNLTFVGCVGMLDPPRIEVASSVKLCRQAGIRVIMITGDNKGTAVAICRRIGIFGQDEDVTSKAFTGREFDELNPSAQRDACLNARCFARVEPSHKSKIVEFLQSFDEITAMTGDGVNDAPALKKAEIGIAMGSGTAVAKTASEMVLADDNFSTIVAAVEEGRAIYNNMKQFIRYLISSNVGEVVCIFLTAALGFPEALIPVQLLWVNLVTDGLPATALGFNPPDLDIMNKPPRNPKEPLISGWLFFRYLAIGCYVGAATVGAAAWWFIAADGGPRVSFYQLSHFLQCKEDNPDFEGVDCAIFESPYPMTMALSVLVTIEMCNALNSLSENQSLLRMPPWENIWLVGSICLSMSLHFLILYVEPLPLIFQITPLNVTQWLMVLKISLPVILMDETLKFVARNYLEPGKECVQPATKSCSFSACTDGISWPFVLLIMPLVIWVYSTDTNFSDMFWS
Protocol: A Ca-ATPase assay was performed using microsomal preparations from HEK 293 cells at a series of calcium concentrations corresponding to the physiological range, relative to controls. The ATP hydrolysis rate was measured over a range of calcium concentrations in the presence of test compounds using an NADH-linked, enzyme-coupled ATPase assay adapted for 96-well microplates, with Vmax determined by fitting the ATPase calcium-dependence to the Hill function. Each well contained 2 μg or 7 μg of SR vesicles (optimized for skeletal or cardiac SR, respectively), 50 mM MOPS (pH 7.0), 100 mM KCl, 5 mM MgCl2, 1 mM EGTA, 0.2 mM NADH, 1 mM phosphoenol pyruvate, 5 IU pyruvate kinase, 5 IU lactate dehydrogenase, and 3.5 μg/mL A23187 (a calcium ionophore). CaCl2 was added to set free [Ca^2+] to the specific values. The assay was started upon addition of ATP at a final concentration of 5 mM, and read in a SpectraMax Plus microplate spectrophotometer. The results are summarized in Table 4, where A represents an increase in SERCA Vmax greater than or equal to 50% and B represents a value greater than 10% and less than 50%.

[2] = test system: Ob/ob mice; test: Effect of a SERCA agonist on the level of blood glucose; format: in vivo; settings: Mus musculus, ip, 96 h, 50 mg/kg i.p. once a day for 5 days, fasting glucose at baseline and 4 days after administration, read-out: Glucose level reduction
Protocol: Ob/ob mice (10 weeks old, n=7) were intraperitoneally (i.p.) injected with 100 μL of a solution containing 0 (vehicle) or 50 mg/kg of a test compound once a day for a total of 5 days. Fasting glucose was measured at baseline and 4 days after the administration of the test compound. Glucose levels were measured in blood samples drawn from the tail vein using a handheld glucose sensor. Compound effects on blood glucose are shown in Table 5 where A represents a 10-20% reduction in blood glucose, B represents a 21-30% reduction in blood glucose, and C represents a greather than 30% reduction in blood glucose levels.

[3] = test system: Human SH-SY5Y cells; test: Cell rescue assay: protection against ß-amyloid-induced cell toxicity; format: cell-based; settings: 96 h, 7.5 uM compound, AB1-42 at 10 uM, 4 days, % cell rescue, read-out: Cell Survival %
Protocol: Protection against ß-amyloid-induced cell toxicity. Chonpathompikunlert et al. Eu. J. Pharmacol. 2011, 650, 544-549. Human SH-SY5Y cells are suspended in media containing 2% FBS and 2× Gentamicin. Transfer 100 ul/well culture to 96-well plate (20,000 cells/well; passage #5) and incubate overnight. Prepare compound samples at 30 uM. Add 50 ul of the samples to the cells [[…]] and incubate 3 hours. Make stock of 40 uM AB1-42 peptide in assay media. Transfer 50 ul/well to cells/compounds in assay plate. The final assay volume is 200 ul/well, containing 2% FBS, 2× Gentamicin, 7.5 uM compound and AB1-42 at 10 uM. Incubate for 4 days then add 20 ul of Promega Substrate Cell Titer 96 Aqueous One Solution Reagent to each well. Incubate 37° C. and read OD at 490 nm. The results are summarized in Table 3, where A represents a value equal to or greater than 50% cell rescue, B represents a value greater than 20% and less than 50% cell rescue, and C represents a value greater than 10% and less than or equal to 20% cell rescue.

[4] = test system: Human embryonic kidney (HEK293) cells; mouse neuroblastoma (N2a) cells; test: Cell rescue assay: protection against thapsigargin (TG)-induced cell-death (ALAMARBLUE); format: cell-based; settings: compound at 20 μM, 2 hrs before thapsigargin (15 μM for HEK293 cells, 1 μM for N2a cells), 24 hrs; viability as % RFU compared to control; cell line not given; read-out: Cell Survival %
Protocol: Protection against Thapsigargin (TG)-induced Cell-death. Human embryonic kidney (HEK293) cells were grown in Dulbecco's Modified Eagle's Medium (DMEM) with 10% FBS and 1% antibiotic antimycotic solution (ABAM). Mouse neuroblastoma (N2a) cells were grown in 1:1 DMEM:OPTI-MEM® with 5% FBS and 1% ABAM. All cells were grown in 10% CO2 in a humidified environment of the incubator. Cells grown in 96-well plates were exposed to a test compound (20 μM) for 2 hrs before addition of thapsigargin (15 μM for HEK293 cells and 1 μM for N2a cells) to induce ER stress. After incubation in cell-culture incubator for 24 hrs, ALAMARBLUE® regent (10% v/v) was added to the wells. Fluorescence reading was taken 2 hrs after the addition of the ALAMARBLUE® regent. Cell-viability was calculated as a percentage of relative fluorescence unit (RFU) compared to control. […] The biological results are summarized in Table 2, where each compound was tested at 20 μM and where A represents a viability greater than or equal to 50%, B represents a viability greather than 20% and less than 50%, and C represents a value from 10% to 20%.

[5] = test system: CSM14.1 neuronal cells; test: Cell survival assay (thapsigargin-induced cell death, CELLTITER-GLO); format: cell-based; settings: compound 2 hrs before about 15 μM thapsigargin, overnight (about 16 to 24 hrs), luminescence
Protocol: CSM14.1 neuronal cells were maintained in Complete Medium at 32° C.; wherein the Complete Medium contained Dulbecco's modified eagle medium (DMEM) with 10% fetal bovine serum (FSB), 1% L-glutamine, 100 IU/mL penicillin, and 100 μg/mL streptomycin. The cells were recovered from cultures by trypsinization and then seeded in 384 well plates (Greiner #781098) at a concentration of 1,000 cells/well in 20 μL of DMEM Assay Medium, wherein the DMEM Assay Medium contained 2% FBS, 100 IU/mL penicillin, and 100 μg/mL streptomycin. Seeding was performed using a MultiDrop Combi reagent broadcaster. The plates were incubated overnight at 32° C. A test compound was prepared by 2-fold serial dilution in 100% DMSO using a BIOMEK® 2000 liquid handler (Beckman Coulter). A dose-response curve containing 10 concentrations of the test compound was obtained. Using a BIOMEK® FX liquid handler (Beckman Coulter), 2.5 μL of the test compound was transferred from the 100% DMSO serial dilution plate to an intermediate plate containing 47.5 μL of DMEM Assay Medium containing 2% FBS, 100 IU/mL penicillin, and 100 μg/mL streptomycin and mixed. To reduce or eliminate the interference from the compound's precipitation, 6 μL of the diluted compound was immediately transferred to the assay plate to achieve a high compound concentration of 100 μM in 99% DMEM Assay Medium and 1% DMSO. After the assay plates were incubated for 2 hrs, 4 μL of 112.5 μM thapsigargin (TG) (DMSO stock diluted into Assay TC Medium) was dispensed into each testing well with a MultiDrop Combi reagent broadcaster for a final concentration of about 15 μM TG. The tissue culture media (4 μL) containing vehicle only was transferred manually to each control cell using a 16 channel electronic pipette. After the plates were incubated overnight (about 16 to 24 hrs), CELLTITER-GLO® (Promega) (16 μL) was added to all wells and luminescence was measured. High luminescence indicates cell survival. The biological results are summarized in Table 1 where A represents a cell viability EC50 less than or equal to 1 μM, B represents a value greater than 1 μM and less than 10 μM, and C represents a value equal to or greather than 10 μM and less than 20 μM.

In the case of `CC(C)Oc1ccc(C(=O)Nc2cccc3nccnc23)cc1` [A1, 4-Isopropoxy-N-(quinoxalin-5-yl)benzamide], the “SERCA Vmax Increase” value [1] is reported as “A (A represents an increase in SERCA Vmax greater than or equal to 50%)”, the inhibition in vivo at 50 mg/kg [2] is reported as 21 to 30% and the viability at 7.5 µM [3] is reported as at least 50%. For the same compound, the viability at 20 µM [4] was 20 to 50% and the EC50 [5] was 1 to 10 µM.

With `O=C(Nc1cccc2nccnc12)c1cc(Br)cs1` [A2, 4-Bromo-N-(quinoxalin-5-yl)thiophene-2-carboxamide] the “SERCA Vmax Increase” value [1] was “B (B represents a value greater than 10% and less than 50%)”, the inhibition in vivo at 50 mg/kg [2] was 21 to 30% and the viability at 7.5 µM [3] was 10 to 20%. It also gave a viability at 20 µM [4] of 20 to 50% and an EC50 [5] of 1 to 10 µM.

In the case of `O=C(Nc1cccc2nccnc12)c1ccc(Br)s1` [A3, 5-Bromo-N-(quinoxalin-5-yl)thiophene-2-carboxamide], the “SERCA Vmax Increase” value [1] is reported as “A (A represents an increase in SERCA Vmax greater than or equal to 50%)”, the inhibition in vivo at 50 mg/kg [2] is reported as 10 to 20% and the viability at 7.5 µM [3] is reported as 20 to 50%. The viability at 20 µM [4] was 10 to 20% and the EC50 [5] was 10 to 20 µM.

`Cc1ccc(C(=O)Nc2cccc3nccnc23)s1` [A4, 5-Methyl-N-(quinoxalin-5-yl)thiophene-2-carboxamide] was tested, and the “SERCA Vmax Increase” value [1] was “A (A represents an increase in SERCA Vmax greater than or equal to 50%)”, the inhibition in vivo at 50 mg/kg [2] was 10 to 20% and the viability at 7.5 µM [3] was at least 50%. For the same compound, the viability at 20 µM [4] was at least 50% and the EC50 [5] was 1 to 10 µM.

For `O=C(Nc1cccc2nccnc12)c1cccs1` [A5, N-(Quinoxalin-5-yl)thiophene-2-carboxamide], the “SERCA Vmax Increase” value [1] was “A (A represents an increase in SERCA Vmax greater than or equal to 50%)”, the inhibition in vivo at 50 mg/kg [2] was over 30% and the viability at 7.5 µM [3] was 20 to 50%. For the same compound, the viability at 20 µM [4] was 10 to 20% and the EC50 [5] was 10 to 20 µM.

`O=C(Nc1cccc2nccnc12)c1cc2ccccc2s1` [A6, N-(Quinoxalin-5-yl)benzo[b]thiophene-2-carboxamide] was tested, and the “SERCA Vmax Increase” value [1] was “B (B represents a value greater than 10% and less than 50%)”, the inhibition in vivo at 50 mg/kg [2] was 10 to 20% and the viability at 7.5 µM [3] was 20 to 50%. For the same compound, the viability at 20 µM [4] was 10 to 20% and the EC50 [5] was 1 to 10 µM.

`O=C(Nc1cccc2nccnc12)c1ccc(Cl)cc1` [A7, 4-Chloro-N-(quinoxalin-5-yl)benzamide] was tested, and the “SERCA Vmax Increase” value [1] was “B (B represents a value greater than 10% and less than 50%)”, the inhibition in vivo at 50 mg/kg [2] was 10 to 20% and the viability at 7.5 µM [3] was 20 to 50%. For the same compound, the viability at 20 µM [4] was at least 50% and the EC50 [5] was at most 1 µM.

With `CC(C)Oc1cccc(C(=O)Nc2cccc3nccnc23)c1` [A8, 3-Isopropoxy-N-(quinoxalin-5-yl)benzamide] the “SERCA Vmax Increase” value [1] was “B (B represents a value greater than 10% and less than 50%)”, the inhibition in vivo at 50 mg/kg [2] was 21 to 30% and the viability at 7.5 µM [3] was 20 to 50%. The viability at 20 µM [4] was 20 to 50% and the EC50 [5] was 10 to 20 µM.

With `O=C(Nc1cccc2nccnc12)c1ccc(C(F)(F)F)cc1` [A9, N-(quinoxalin-5-yl)-4-(trifluoromethyl)benzamide] the “SERCA Vmax Increase” value [1] was “A (A represents an increase in SERCA Vmax greater than or equal to 50%)”, the inhibition in vivo at 50 mg/kg [2] was 21 to 30% and the viability at 7.5 µM [3] was 10 to 20%. The viability at 20 µM [4] was 20 to 50% and the EC50 [5] was at most 1 µM.

For `O=C(Nc1cccc2nccnc12)c1cccc(F)c1` [A10, 3-fluoro-N-(quinoxalin-5-yl)benzamide], the “SERCA Vmax Increase” value [1] was “A (A represents an increase in SERCA Vmax greater than or equal to 50%)”, the inhibition in vivo at 50 mg/kg [2] was over 30% and the viability at 7.5 µM [3] was 20 to 50%. For the same compound, the viability at 20 µM [4] was 10 to 20% and the EC50 [5] was 1 to 10 µM.
